Earlier results as cited in PMC10452110, “Indole-3-Acetamido-Polyamines as Antimicrobial Agents and Antibiotic Adjuvants” (Biomolecules, 2023).
pIC50: −log10 of the molar value. ≈ marks a conversion by molar mass, not a printed value. Where two headings read alike, the source gives them in different places.

Columns and labels:
MRSA (ATCC 43300) = conditions: ref Cadelis et al. [15]; cited from earlier work
[1] = tested on: Klebsiella pneumoniae (ATCC 700603); design: method as in Cadelis et al. [15]; conditions: K. pneumoniae ATCC 700603; ref Cadelis et al. [15]; cited from earlier work
P. aeruginosa ATCC 27853 = tested on: P. aeruginosa ATCC 27853; design: method as in Cadelis et al. [15]; conditions: doxycycline at 4.5 µM, ref Cadelis et al. [15], cited from earlier work
[2] = tested on: Candida albicans (ATCC 90028); design: method as in Cadelis et al. [15]; conditions: C. albicans ATCC 90028; ref Cadelis et al. [15]; cited from earlier work
[3] = tested on: Escherichia coli (ATCC 25922); design: method as in Cadelis et al. [15]; conditions: E. coli ATCC 25922; ref Cadelis et al. [15]; cited from earlier work
human red blood cells = tested on: human red blood cells; design: method as in Cadelis et al. [15]; conditions: ref Cadelis et al. [15], cited from earlier work
[4] = tested on: HEK293 (human embryonic kidney) cells; design: method as in Cadelis et al. [15]; conditions: ref Cadelis et al. [15], cited from earlier work
[5] = tested on: Pseudomonas aeruginosa (ATCC 27853); design: method as in Cadelis et al. [15]; conditions: P. aeruginosa ATCC 27853; ref Cadelis et al. [15]; cited from earlier work
[6] = tested on: Staphylococcus aureus (ATCC 25923); design: method as in Cadelis et al. [15]; conditions: S. aureus ATCC 25923; ref Cadelis et al. [15]; cited from earlier work
E. coli = tested on: E. coli; design: method as in PMID 33090655; conditions: ref [15]; cited from earlier work
[7] = tested on: Cryptococcus neoformans (ATCC 208821); design: method as in Cadelis et al. [15]; conditions: C. neoformans ATCC 208821; ref Cadelis et al. [15]; cited from earlier work
K. pneumoniae = tested on: K. pneumoniae; design: method as in PMID 33090655; conditions: ref [15]; cited from earlier work
[8] = tested on: Acinetobacter baumannii (ATCC 19606); design: method as in Cadelis et al. [15]; conditions: A. baumannii ATCC 19606; ref Cadelis et al. [15]; cited from earlier work

## O=C(Cc1c[nH]c2ccc(Br)cc12)NCCCNCCCCNCCCNC(=O)Cc1c[nH]c2ccc(Br)cc12 [Compound 15a]
MRSA (ATCC 43300)
  MIC MRSA: 47.4 µM (≈ 32 µg/mL)
[1]
  MIC K. p: >48 µM
P. aeruginosa ATCC 27853; P. aeruginosa ATCC 27853
  Dox/P. a fold change (ratio between intrinsic MIC of the test compound and combination MIC): 32 fold
P. aeruginosa ATCC 27853; P. aeruginosa
  Dox/P. a: concentration required to restore doxycycline activity (combination MIC): 6.25 µM
[2]
  MIC C. a: >48 µM
[3]
  MIC E. c: 200 µM (≈ 135 µg/mL)
Human red blood cells; listed as 5
  Hemolysis: concentration of compound at 10% hemolytic activity (HC10): negligible
Human red blood cells
  Hemolysis: concentration of compound at 10% hemolytic activity (HC10): >35 µM
[4]; read-out: Cytotoxicity: concentration of compound at 50% cytotoxicity (IC50)
  pIC50: < 4.46
[4]
  Cytotoxicity: concentration of compound at 50% cytotoxicity (IC50): negligible
[5]
  MIC P. a: 200 µM (≈ 135 µg/mL)
[6]
  MIC S. a: 25 µM (≈ 16.9 µg/mL)
E. coli
  enhancement of the antibiotic action of doxycycline (MIC): 3.125 µM
[7]
  MIC C. n: 11.9 µM (≈ 8.03 µg/mL)
K. pneumoniae
  enhancement of the antibiotic action of doxycycline (MIC): 6.25 µM
[8]
  MIC A. b: >48 µM
